Calls of active or inactive are those of the source. The calls are words filed in the database; no cut-off is given here.
Tests used:
Candida albicans = experiment: Antifungal activity against Candida albicans ATCC 10231 assessed as inhibition of fungal growth at 0.01 to 30 uM after 24 hrs by spectrophotometric analysis; type: functional, organism-based; details: dose 0.01-30 µM
Staphylococcus aureus [1] = experiment: Antibacterial activity against Staphylococcus aureus ATCC 25923 assessed as inhibition of microbial growth at 0.01 to 30 uM after 24 hrs by spectrophotometric analysis; type: functional, organism-based; details: dose 0.01-30 µM
Escherichia coli = experiment: Antibacterial activity against Escherichia coli ATCC 11775 assessed as inhibition of microbial growth at 0.01 to 30 uM after 24 hrs by spectrophotometric analysis; type: functional, organism-based; details: dose 0.01-30 µM
Staphylococcus aureus [2] = experiment: Antibacterial activity against methicillin-resistant Staphylococcus aureus AUS-RBWH-MRSA-02 assessed as inhibition of microbial growth at 0.01 to 30 uM after 24 hrs by spectrophotometric analysis; type: functional, organism-based; details: dose 0.01-30 µM
SW-620 = experiment: Cytotoxicity against human SW620 cells assessed as growth inhibition at 0.01 to 30 uM incubated for 48 hrs by MTT assay; type: functional, cell-based; details: dose 0.01-30 µM
[3] = molecular target: ATP-dependent translocase ABCB1 (Homo sapiens, UniProt P08183); experiment: Inhibition of P-gp in human SW620/AD300 cells assessed as reduction in doxorubicin IC50 at 5 uM incubated for 48 hrs by MTT assat; type: functional, cell-based; details: sw620/ad300, 48 h
Chain of ATP-dependent translocase ABCB1 (P08183 whole entry): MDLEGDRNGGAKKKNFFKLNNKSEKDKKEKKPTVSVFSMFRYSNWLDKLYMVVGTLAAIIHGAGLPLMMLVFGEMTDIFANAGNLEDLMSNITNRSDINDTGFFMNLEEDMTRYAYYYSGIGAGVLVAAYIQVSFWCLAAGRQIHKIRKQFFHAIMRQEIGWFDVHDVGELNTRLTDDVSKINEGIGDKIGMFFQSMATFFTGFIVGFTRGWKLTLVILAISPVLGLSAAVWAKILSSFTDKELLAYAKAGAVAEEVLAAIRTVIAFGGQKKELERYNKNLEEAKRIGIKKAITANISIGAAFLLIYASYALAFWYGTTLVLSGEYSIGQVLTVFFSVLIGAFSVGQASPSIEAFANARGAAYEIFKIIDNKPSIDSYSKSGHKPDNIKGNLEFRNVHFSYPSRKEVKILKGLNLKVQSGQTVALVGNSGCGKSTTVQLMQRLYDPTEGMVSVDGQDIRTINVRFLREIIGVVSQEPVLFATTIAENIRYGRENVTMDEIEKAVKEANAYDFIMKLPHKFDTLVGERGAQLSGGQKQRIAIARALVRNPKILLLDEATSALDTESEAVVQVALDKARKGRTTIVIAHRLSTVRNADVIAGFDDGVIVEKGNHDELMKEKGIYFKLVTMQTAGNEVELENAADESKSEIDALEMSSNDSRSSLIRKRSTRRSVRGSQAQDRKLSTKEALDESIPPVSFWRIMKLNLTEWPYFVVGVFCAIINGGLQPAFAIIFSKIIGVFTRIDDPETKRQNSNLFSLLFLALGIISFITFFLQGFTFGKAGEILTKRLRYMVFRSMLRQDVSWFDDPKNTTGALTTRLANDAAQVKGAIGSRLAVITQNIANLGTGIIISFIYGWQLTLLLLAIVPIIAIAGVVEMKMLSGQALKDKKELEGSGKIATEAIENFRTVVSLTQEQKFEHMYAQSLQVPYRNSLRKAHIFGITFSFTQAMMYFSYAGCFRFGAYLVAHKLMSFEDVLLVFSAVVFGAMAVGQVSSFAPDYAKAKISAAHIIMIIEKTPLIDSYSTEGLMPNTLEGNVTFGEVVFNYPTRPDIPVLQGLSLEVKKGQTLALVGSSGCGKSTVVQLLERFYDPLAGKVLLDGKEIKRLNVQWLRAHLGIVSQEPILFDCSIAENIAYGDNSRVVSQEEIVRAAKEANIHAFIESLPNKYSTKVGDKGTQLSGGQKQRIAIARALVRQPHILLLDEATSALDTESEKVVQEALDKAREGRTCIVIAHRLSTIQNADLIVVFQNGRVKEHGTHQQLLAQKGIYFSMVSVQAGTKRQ

`COc1ccc2c(c1OC)Cn1cccc1C2=O` was tested, and the inhibition (Candida albicans) was “inactive”, the inhibition (Staphylococcus aureus [1]) was “inactive” and the inhibition (Escherichia coli) was “inactive”. The inhibition (Staphylococcus aureus [2]) was “inactive”, the “growth inhibition (GI)” value (SW-620) was “inactive” and the “inhibition (INH)” value [3] was “Not Active”.
With `COc1cccc(Cn2cccc2C(=O)O)c1OC` the inhibition (Candida albicans) was “inactive”, the inhibition (Staphylococcus aureus [1]) was “inactive” and the inhibition (Escherichia coli) was “inactive”. The inhibition (Staphylococcus aureus [2]) was “inactive”, the “growth inhibition (GI)” value (SW-620) was “inactive” and the “inhibition (INH)” value [3] was “Not Active”.
With `COC(=O)c1cccn1Cc1cccc(OC)c1OC` the inhibition (Candida albicans) was “inactive”, the inhibition (Staphylococcus aureus [1]) was “inactive” and the inhibition (Escherichia coli) was “inactive”. The inhibition (Staphylococcus aureus [2]) was “inactive”, the “growth inhibition (GI)” value (SW-620) was “inactive” and the “inhibition (INH)” value [3] was “Not Active”.
`O=C1c2ccc(O)c(O)c2Cn2cccc21` was tested, and the inhibition (Candida albicans) was “inactive”, the inhibition (Staphylococcus aureus [1]) was “inactive” and the inhibition (Escherichia coli) was “inactive”. For the same molecule, the inhibition (Staphylococcus aureus [2]) was “inactive”, the “growth inhibition (GI)” value (SW-620) was “inactive” and the “inhibition (INH)” value [3] was “Not Active”.
In the case of `O=C1c2ccc3c(c2Cn2cccc21)OCO3`, the inhibition (Candida albicans) is reported as “inactive”, the inhibition (Staphylococcus aureus [1]) is reported as “inactive” and the inhibition (Escherichia coli) is reported as “inactive”. For the same molecule, the inhibition (Staphylococcus aureus [2]) was “inactive”, the “growth inhibition (GI)” value (SW-620) was “inactive” and the “inhibition (INH)” value [3] was “Not Active”.
For `O=C(OCc1cccc2c1OCO2)c1ccc[nH]1`, the inhibition (Candida albicans) was “inactive”, the inhibition (Staphylococcus aureus [1]) was “inactive” and the inhibition (Escherichia coli) was “inactive”. The inhibition (Staphylococcus aureus [2]) was “inactive”, the “growth inhibition (GI)” value (SW-620) was “inactive” and the “inhibition (INH)” value [3] was “Not Active”.
With `O=C(O)c1cccn1Cc1cccc2c1OCO2` the inhibition (Candida albicans) was “inactive”, the inhibition (Staphylococcus aureus [1]) was “inactive” and the inhibition (Escherichia coli) was “inactive”. The inhibition (Staphylococcus aureus [2]) was “inactive”, the “growth inhibition (GI)” value (SW-620) was “inactive” and the “inhibition (INH)” value [3] was “Not Active”.
With `COC(=O)c1cccn1Cc1cccc2c1OCO2` the inhibition (Candida albicans) was “inactive”, the inhibition (Staphylococcus aureus [1]) was “inactive” and the inhibition (Escherichia coli) was “inactive”. For the same molecule, the inhibition (Staphylococcus aureus [2]) was “inactive”, the “growth inhibition (GI)” value (SW-620) was “inactive” and the “inhibition (INH)” value [3] was “Not Active”.

Reference: ChEMBL document CHEMBL5579881, “Synthesis of the Corrected Structure Assigned to Clonorosin B, an Alkaloid Obtained from the Soil-derived Fungus Clonostachys rosea YRS-06” (J Nat Prod, 2024)
